Measurements from patent US11820766B2, “Monoacylglycerol lipase modulators” (Janssen Pharmaceutica NV, priority 2018, dated 2023).

Each compound was assayed against T1, human MGL from HeLa cells (Homo sapiens, UniProt Q99685) (assay: In vitro MGL activity assay: [glycerol-1,3-3H]-oleyl glycerol cleavage by MGL from HeLa cells). Details: 300 nM [Glycerol-1,3-3H]-oleyl glycerol, one hour incubation.
T1 construct: combining endogenously expressed MGL from HeLa cells with test compounds; endogenous in cells; host or cells: HeLa cells / cell homogenates
T1 sequence (Q99685 1-303): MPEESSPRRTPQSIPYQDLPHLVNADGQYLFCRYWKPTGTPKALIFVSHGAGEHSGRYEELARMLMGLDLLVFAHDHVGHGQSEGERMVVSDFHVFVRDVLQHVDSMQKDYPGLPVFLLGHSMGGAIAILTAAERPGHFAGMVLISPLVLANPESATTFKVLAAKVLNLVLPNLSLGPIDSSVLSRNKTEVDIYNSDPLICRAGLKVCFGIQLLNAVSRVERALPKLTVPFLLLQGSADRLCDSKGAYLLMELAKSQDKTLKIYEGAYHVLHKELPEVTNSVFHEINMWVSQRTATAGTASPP
Assay type: biochemical
From the text: MGL is the predominant hydrolase in HeLa cells/cell homogenates.

| Structure (SMILES) | IC50 |
| --- | --- |
| Cn1nc2c(c1-c1ccccc1)CCN(C(=O)c1ccc3cc[nH]c3c1)C2 [Example 46, (1H-Indol-6-yl)(2-methyl-3-phenyl-2,4,5,7-tetrahydro-6H-pyrazolo[3,4-c]pyridin-6-yl)methanone] | 359 nM |
| Cn1nc2c(c1-c1ccccc1)CCN(C(=O)c1c(F)ccc3[nH]ccc13)C2 [Example 47, (5-Fluoro-1H-indol-4-yl)(2-methyl-3-phenyl-2,4,5,7-tetrahydro-6H-pyrazolo[3,4-c]pyridin-6-yl)methanone] | 70.2 nM |
| Cn1nc2c(c1-c1ccccc1)CCN(C(=O)c1c[nH]c3c(Cl)cccc13)C2 [Example 48, (7-Chloro-1H-indol-3-yl)(2-methyl-3-phenyl-2,4,5,7-tetrahydro-6H-pyrazolo[3,4-c]pyridin-6-yl)methanone] | 103 nM |
| Cn1nc2c(c1-c1ccccc1)CCN(C(=O)c1c[nH]c3cccc(Cl)c13)C2 [Example 49, (4-Chloro-1H-indol-3-yl)(2-methyl-3-phenyl-2,4,5,7-tetrahydro-6H-pyrazolo[3,4-c]pyridin-6-yl)methanone] | 461 nM |
| Cc1cccc2cc(C(=O)N3CCc4c(nn(C)c4-c4ccccc4)C3)[nH]c12 [Example 50, (7-Methyl-1H-indol-2-yl)(2-methyl-3-phenyl-2,4,5,7-tetrahydro-6H-pyrazolo[3,4-c]pyridin-6-yl)methanone] | 2000 nM |
| Cn1nc2c(c1-c1ccccc1)CCN(C(=O)c1cccc3c1ccn3C)C2 [Example 51, (1-Methyl-1H-indol-4-yl)(2-methyl-3-phenyl-2,4,5,7-tetrahydro-6H-pyrazolo[3,4-c]pyridin-6-yl)methanone] | 15.6 nM |
| Cn1nc2c(c1-c1ccccc1)CCN(C(=O)c1cn(C)c3ccccc13)C2 [Example 52, (1-Methyl-1H-indol-3-yl)(2-methyl-3-phenyl-2,4,5,7-tetrahydro-6H-pyrazolo[3,4-c]pyridin-6-yl)methanone] | 138 nM |
| Cn1nc2c(c1-c1ccccc1)CCN(C(=O)c1noc3ccccc13)C2 [Example 53, Benzo[d]isoxazol-3-yl(2-methyl-3-phenyl-2,4,5,7-tetrahydro-6H-pyrazolo[3,4-c]pyridin-6-yl)methanone] | 32.2 nM |
| Cn1nc2c(c1-c1ccccc1)CCN(C(=O)c1noc3cc(Cl)ccc13)C2 [Example 54, (6-Chlorobenzo[d]isoxazol-3-yl)(2-methyl-3-phenyl-2,4,5,7-tetrahydro-6H-pyrazolo[3,4-c]pyridin-6-yl)methanone] | 1120 nM |
| Cn1nc2c(c1-c1ccccc1)CCN(C(=O)c1onc3ccccc13)C2 [Example 55, Benzo[c]isoxazol-3-yl(2-methyl-3-phenyl-2,4,5,7-tetrahydro-6H-pyrazolo[3,4-c]pyridin-6-yl)methanone] | 226 nM |
| Cn1nc2c(c1-c1ccccc1)CCN(C(=O)c1ccc3ncoc3c1)C2 [Example 56, Benzo[d]oxazol-6-yl(2-methyl-3-phenyl-2,4,5,7-tetrahydro-6H-pyrazolo[3,4-c]pyridin-6-yl)methanone] | 293 nM |
| Cn1nc2c(c1-c1ccccc1)CCN(C(=O)c1nc3ccccc3o1)C2 [Example 57, Benzo[d]oxazol-2-yl(2-methyl-3-phenyl-2,4,5,7-tetrahydro-6H-pyrazolo[3,4-c]pyridin-6-yl)methanone] | 1680 nM |
| Cn1nc2c(c1-c1ccccc1)CCN(C(=O)c1ccc3ocnc3c1)C2 [Example 58, Benzo[d]oxazol-5-yl(2-methyl-3-phenyl-2,4,5,7-tetrahydro-6H-pyrazolo[3,4-c]pyridin-6-yl)methanone] | 4180 nM |
| Cn1nc2c(c1-c1ccccc1)CCN(C(=O)c1cccc3ncsc13)C2 [Example 59, Benzo[d]thiazol-7-yl(2-methyl-3-phenyl-2,4,5,7-tetrahydro-6H-pyrazolo[3,4-c]pyridin-6-yl)methanone] | 403 nM |
| Cn1nc2c(c1-c1ccccc1)CCN(C(=O)c1ccc3scnc3c1)C2 [Example 60, Benzo[d]thiazol-5-yl(2-methyl-3-phenyl-2,4,5,7-tetrahydro-6H-pyrazolo[3,4-c]pyridin-6-yl)methanone] | 550 nM |
| Cn1nc2c(c1-c1ccccc1)CCN(C(=O)c1cccc3scnc13)C2 [Example 61, Benzo[d]thiazol-4-yl(2-methyl-3-phenyl-2,4,5,7-tetrahydro-6H-pyrazolo[3,4-c]pyridin-6-yl)methanone] | 755 nM |
| Cn1nc2c(c1-c1ccccc1)CCN(C(=O)c1nc3ccccc3s1)C2 [Example 62, Benzo[d]thiazol-2-yl(2-methyl-3-phenyl-2,4,5,7-tetrahydro-6H-pyrazolo[3,4-c]pyridin-6-yl)methanone] | 1640 nM |
| Cn1nc2c(c1-c1ccccc1)CCN(C(=O)c1nsc3ccccc13)C2 [Example 63, Benzo[d]isothiazol-3-yl(2-methyl-3-phenyl-2,4,5,7-tetrahydro-6H-pyrazolo[3,4-c]pyridin-6-yl)methanone] | 49 nM |

| Structure (SMILES) | IC50 |
| --- | --- |
| Cn1nc2c(c1-c1ccccc1)CCN(C(=O)c1ccc3[nH]ncc3c1)C2 [Example 64, (1H-Indazol-5-yl)(2-methyl-3-phenyl-2,4,5,7-tetrahydro-6H-pyrazolo[3,4-c]pyridin-6-yl)methanone] | 56.2 nM |
| Cn1nc2c(c1-c1ccccc1)CCN(C(=O)c1cccc3[nH]ncc13)C2 [Example 65, (1H-Indazol-4-yl)(2-methyl-3-phenyl-2,4,5,7-tetrahydro-6H-pyrazolo[3,4-c]pyridin-6-yl)methanone] | 101 nM |
| Cn1nc2c(c1-c1ccccc1)CCN(C(=O)c1n[nH]c3ccccc13)C2 [Example 66, (1H-Indazol-3-yl)(2-methyl-3-phenyl-2,4,5,7-tetrahydro-6H-pyrazolo[3,4-c]pyridin-6-yl)methanone] | 300 nM |
| Cn1nc2c(c1-c1ccccc1)CCN(C(=O)c1cccc3cn[nH]c13)C2 [Example 67, (1H-Indazol-7-yl)(2-methyl-3-phenyl-2,4,5,7-tetrahydro-6H-pyrazolo[3,4-c]pyridin-6-yl)methanone] | 1630 nM |
| Cn1nc2c(c1-c1ccccc1)CCN(C(=O)c1ccc3cn[nH]c3c1)C2 [Example 68, (1H-Indazol-6-yl)(2-methyl-3-phenyl-2,4,5,7-tetrahydro-6H-pyrazolo[3,4-c]pyridin-6-yl)methanone] | 2190 nM |
| Cn1nc2c(c1-c1ccccc1)CCN(C(=O)c1n[nH]c3c(Cl)cccc13)C2 [Example 69, (7-Chloro-1H-indazol-3-yl)(2-methyl-3-phenyl-2,4,5,7-tetrahydro-6H-pyrazolo[3,4-c]pyridin-6-yl)methanone] | 662 nM |
| Cn1nc2c(c1-c1ccccc1)CCN(C(=O)c1nn(C)c3ccccc13)C2 [Example 70, (1-Methyl-1H-indazol-3-yl)(2-methyl-3-phenyl-2,4,5,7-tetrahydro-6H-pyrazolo[3,4-c]pyridin-6-yl)methanone] | 380 nM |
| Cn1nc2c(c1-c1ccccc1)CCN(C(=O)c1ccc3[nH]cnc3c1)C2 [Example 71, (1H-Benzo[d]imidazol-5-yl)(2-methyl-3-phenyl-2,4,5,7-tetrahydro-6H-pyrazolo[3,4-c]pyridin-6-yl)methanone] | 1010 nM |
| Cn1nc2c(c1-c1ccccc1)CCN(C(=O)c1cccc3[nH]c(C(F)(F)F)nc13)C2 [Example 72, (2-Methyl-3-phenyl-2,4,5,7-tetrahydro-6H-pyrazolo[3,4-c]pyridin-6-yl)(2-(trifluoromethyl)-1H-benzo[d]imidazol-4-yl)methanone] | 2320 nM |
| Cn1nc2c(c1-c1ccccc1)CCN(C(=O)c1ccn3nccc3c1)C2 [Example 73, (2-Methyl-3-phenyl-2,4,5,7-tetrahydro-6H-pyrazolo[3,4-c]pyridin-6-yl)(pyrazolo[1,5-a]pyridin-5-yl)methanone] | 2500 nM |
| Cn1nc2c(c1-c1ccccc1)CCN(C(=O)c1cnn3ccccc13)C2 [Example 74, (2-Methyl-3-phenyl-2,4,5,7-tetrahydro-6H-pyrazolo[3,4-c]pyridin-6-yl)(pyrazolo[1,5-a]pyridin-3-yl)methanone] | 613 nM |
| Cn1nc2c(c1-c1ccccc1)CCN(C(=O)c1cccc3ccnn13)C2 [Example 75, (2-Methyl-3-phenyl-2,4,5,7-tetrahydro-6H-pyrazolo[3,4-c]pyridin-6-yl)(pyrazolo[1,5-a]pyridin-7-yl)methanone] | 1800 nM |
| Cn1nc2c(c1-c1ccccc1)CCN(C(=O)c1ncn3ccccc13)C2 [Example 76, Imidazo[1,5-a]pyridin-1-yl(2-methyl-3-phenyl-2,4,5,7-tetrahydro-6H-pyrazolo[3,4-c]pyridin-6-yl)methanone] | 6110 nM |
| Cn1nc2c(c1-c1ccccc1)CCN(C(=O)c1ccc3cncn3c1)C2 [Example 77, Imidazo[1,5-a]pyridin-6-yl(2-methyl-3-phenyl-2,4,5,7-tetrahydro-6H-pyrazolo[3,4-c]pyridin-6-yl)methanone] | 5160 nM |
| Cn1nc2c(c1-c1ccccc1)CCN(C(=O)c1ccn3cncc3c1)C2 [Example 78, Imidazo[1,5-a]pyridin-7-yl(2-methyl-3-phenyl-2,4,5,7-tetrahydro-6H-pyrazolo[3,4-c]pyridin-6-yl)methanone] | 2000 nM |
| Cn1nc2c(c1-c1ccccc1)CCN(C(=O)c1cccc3cncn13)C2 [Example 79, Imidazo[1,5-a]pyridin-5-yl(2-methyl-3-phenyl-2,4,5,7-tetrahydro-6H-pyrazolo[3,4-c]pyridin-6-yl)methanone] | 1190 nM |
| Cn1nc2c(c1-c1ccccc1)CCN(C(=O)c1cccc3nccn13)C2 [Example 80, Imidazo[1,2-a]pyridin-5-yl(2-methyl-3-phenyl-2,4,5,7-tetrahydro-6H-pyrazolo[3,4-c]pyridin-6-yl)methanone] | 2330 nM |
